Assay results published in the NIST ThermoML archive (doi:10.1016/j.jct.2013.06.018).

Assay: excess molar enthalpy (molar enthalpy of mixing); xn = mol fraction of the nth substance listed
Conditions: 298.15 K, 101 kPa, Liquid, Calvet calorimetry

CCCCCCC [heptane] + CCCO
Conditions	excess molar enthalpy [kcal/mol]
x2 = 0.0699	0.102
x2 = 0.1182	0.125
x2 = 0.2088	0.148
x2 = 0.3839	0.158
x2 = 0.4743	0.152
x2 = 0.5332	0.142
x2 = 0.6744	0.115
x2 = 0.7196	0.103
x2 = 0.7698	0.0906
x2 = 0.7701	0.0884
x2 = 0.8193	0.0719
x2 = 0.8566	0.0605
x2 = 0.8909	0.0483
x2 = 0.8974	0.0464
x2 = 0.9343	0.0308
x2 = 0.9675	0.016
